Holding throughout (type): cell-based
Assay [1] deals with Streptococcus mutans (ATCC 25175) biofilm. The assay is described as follows: Quantitative Biofilm Inhibition Test. The conditions noted are these: average optical density at 550 nm as percentage of control; 1 weight percent compound, 1.0 weight percent sucrose in brain heart infusion broth, 37° C., approximately twenty hours, five discs. The protocol: Compounds of the dental compositions of the invention, and comparative compounds, were evaluated for biofilm inhibition activity. Composite dental restorative (available under the trade designation “FILTEK SUPREME” from 3M ESPE Dental Products, St. Paul, Minn.) was placed in a 15 millimeter by 1 millimeter stainless steel die. The open ends of the die were then covered with polyester film and the die was subjected to a pressure of 68.95 MPa using a hydraulic press. While the die containing the composite restorative was under compression, the composite was irradiated for two minutes using a Model ACE light source (available from SCHOTT North America, Inc., Auburn, N.Y.). The discs of cured composite restorative were then further cured using a Model UniXS light box (available from Heraeus Kulzer, Inc., Armonk, N.Y.) for 1.5 minutes.
The cured discs of composite restorative were then immersed in ten milliliters of Streptococcus mutans culture (ATCC 25175; 10^6 CFU/mL) prepared in brain heart infusion broth that contained 1.0 weight percent sucrose and 1 weight percent of a compound of the dental composition. The samples were incubated at 37° C. for approximately twenty hours, after which time the cured discs were removed from the broth and were gently rinsed with water. Each disc was placed in a separate test tube containing five milliliters of 1M aqueous sodium hydroxide solution, and each test tube was then sonicated for two minutes using a model SH1012-40-8 ultrasonic generator (manufactured by Branson Ultrasonics Corp., Danbury, Conn.) for two minutes to dislodge biofilm on the disc. The optical absorbance (optical density) of each aqueous sodium hydroxide solution was then measured at 550 nm using a Model ULTROSPEC III UV-visible spectrophotometer (manufactured by Pharmacia AB, Uppsala, Sweden). For each compound of the dental composition, five discs were separately incubated in broth and were evaluated separately to provide five optical density measurements. The average of the five optical density measurements was then calculated. […] The average optical density of the control or comparative samples was determined as described above. The ratio, expressed as a percentage, of the average optical density for each compound sample to the average optical density for a control sample was calculated by dividing the average optical density for each compound sample by the average optical density for a control sample and multiplying the result by one hundred. The ratio was considered to be proportional to the average amount of biofilm on the five cured discs, i.e., relatively low average optical density ratio was considered to be indicative of inhibition of biofilm formation. The ratio for the control was 100%.
(§1) The Biofilm Inhibition Test was carried out using compounds of the dental composition. […] In addition, a qualitative determination of biofilm formation was made for each Example and the Comparative Example in which each disc was visually examined before it was placed in the tube containing the aqueous sodium hydroxide solution.

Assay [2] shares this test system. The assay is described as follows: Qualitative Biofilm Inhibition Test (visual examination of discs). The settings on record: visible biofilm on cured composite disc after incubation and water rinse; 1 weight percent compound, 1.0 weight percent sucrose. More on the design: key: +: a visual assessment that a compound inhibited biofilm formation; −: a visual assessment that either a compound did not inhibit biofilm formation, or that bacteria grew in the culture broth. The protocol: as §1, with “During the procedure for the Quantitative Biofilm Inhibition Test, each cured disc was visually examined after it was removed from the broth (and rinsed with water) and before it was placed in a test tube containing five milliliters of 1M aqueous sodium hydroxide solution. The presence or absence of visible biofilm on a disc was noted. The” for “The”

Assay [3] concerns Staphylococcus aureus (strain ATCC 6538). Kind of assay: Minimum Inhibitory Concentration (MIC) Test, S. aureus. The settings on record: tryptic soy broth, 37° C., 24 hours, "none" = no inhibitory activity detected. The protocol:
(§2) The MIC Test was carried out using successively lower concentrations of compounds. Sterile tryptic soy broth (50 microliters; TSB, available from BD Dfico, Becton, Dickinson and Company, Franklin Lakes, N.J.) was deposited into each well of a sterile polystyrene 96-well microtiter plate. Into each well in the first (leftmost) column of the plate, there was then deposited a 50 microliter aliquot (of known concentration) of a compound (I.e., a compound of Formula I, or a pharmaceutically acceptable salt thereof, or comparative compound). A 50 microliter aliquot of the mixture in the first (leftmost) well in the first row of the plate was transferred to the second well in the first row. A 50 microliter aliquot of the mixture in the second well in the first row was then transferred to the third well in the first row. The compound was successively diluted (1:1 dilution at each step) by transferring a 50 microliter aliquot from one well into the next well, across the row of the plate. This procedure was repeated for each row of the plate. Then, an overnight culture of Streptococcus mutans (strain ATCC 25175) was diluted 1:100 into sterile tryptic soy broth. A 50 microliter aliquot of the diluted S. mutans culture (10^5 CFU) was deposited into each well of the microtiter plate. The plate was then incubated at 37° C. for 24 hours in a sealed humidified chamber. The plate was then visually inspected to determine the lowest concentration of compound at which no bacterial growth was visible. This value was considered to be the minimum inhibitory concentration (MTC) for the compound. The test was repeated using Staphylococcus aureus (strain ATCC 6538) and Pseudomonas aeruginosa (strain ATCC 9027) in place of S. mutans. A sample of each of the compounds of Formulae II, III, IV, V, and VI (0.050 g each) was dissolved in water (5 g). Each of the samples was evaluated using the Minimum Inhibitory Concentration (MIC) Test described above with S. mutans, S. aureus, and P. aeruginosa. In Table 3, “none” means that no inhibitory activity was detected.

Assay [4] has as its system Pseudomonas aeruginosa (strain ATCC 9027). Kind of assay: Minimum Inhibitory Concentration (MIC) Test, P. aeruginosa. The settings on record: 37° C., 24 hours, "none" = no inhibitory activity detected. The protocol:
as §2

For assay [5], the system named is Streptococcus mutans (strain ATCC 25175). The assay is described as follows: Minimum Inhibitory Concentration (MIC) Test, S. mutans. The settings on record: 37° C., 24 hours, "none" = no inhibitory activity detected. The protocol:
as §2

Assay [6] relates to Streptococcus mutans (ATCC 25175) biofilm. The assay is described as follows: Biofilm Inhibition Test: concentration of compound to inhibit biofilm formation at varied sucrose.
[7] abbreviates: Streptococcus mutans, ATCC25175, tryptic soy broth, read-out: MIC.

Structures are written as SMILES. In brackets after ≈: the same amount, converted by molar mass. Read-outs that look alike come from different tables or passages of the source.

In the case of `CCCCCCCCC(=O)N(C)C[C@H](O)[C@@H](O)[C@H](O)[C@H](O)CO` [N-Methyl-N-nonanoyl-D-glucamine, N-methyl-N-nonanoyl-D-glucamine], in assay [1], the “OD Ratio” value is reported as 0%. The “Visual Assessment” value in assay [2] was “+”. The MIC entry was “none” in assay [3], “none” in assay [4] (tryptic soy broth) and 2500 µg/mL (≈ 7.45 mM) in assay [5] (setting [7]).
With `CNC[C@H](O)[C@@H](O)[C@H](O)[C@H](O)CO` [N-Methyl-D-glucamine, N-methyl-D-glucamine], in assay [1], the “OD Ratio” value was found to be 0%. For the same compound, in assay [2], the “Visual Assessment” value is listed as “+”. Besides, the MIC result in assay [3], in assay [4] (tryptic soy broth) and in assay [5] (tryptic soy broth) was “none” each time. Moreover, the “Concentration of Compound to Inhibit Biofilm Formation” value in assay [6] (1 wt % Sucrose), in assay [6] (2.5 wt % Sucrose) and in assay [6] (5 wt % Sucrose) was 50 mM each time.
As to `CCCCCCCCCC(=O)N(C)C[C@H](O)[C@@H](O)[C@H](O)[C@H](O)CO` [N-Methyl-N-decanoyl-D-glucamine, N-methyl-N-decanoyl-D-glucamine], the “OD Ratio” value in assay [1] worked out at 0%. In addition, the “Visual Assessment” value in assay [2] is given as “+”. The MIC in assay [3] amounted to 2.50; in assay [4] (Pseudomonas aeruginosa, ATCC9027, tryptic soy broth, read-out: MIC), 2500 µg/mL (≈ 7.15 mM); in assay [5] (setting [7]), 1250 µg/mL (≈ 3.58 mM).
With `NC[C@H](O)[C@@H](O)[C@H](O)[C@H](O)CO` [D-Glucamine, D-glucamine], the “OD Ratio” value in assay [1] is 101.5%. The “Visual Assessment” value in assay [2] is “+”. For the same compound, the MIC entry in assay [3], in assay [4] (tryptic soy broth) and in assay [5] (tryptic soy broth) was “none” each time.
For `CCCCCCCC(=O)N(C)C[C@H](O)[C@@H](O)[C@H](O)[C@H](O)CO` [N-Methyl-N-octanoyl-D-glucamine, N-methyl-N-octanoyl-D-glucamine], in assay [1], the “OD Ratio” value is recorded as 0%. The “Visual Assessment” value in assay [2] is on record as “+”. In addition, the MIC result in assay [3], in assay [4] (tryptic soy broth) and in assay [5] (tryptic soy broth) was “none” in each case.

The record behind these values is patent publication US8968709B2, “Therapeutic dental composition and related methods” (3M Innovative Properties Company, priority 2007, dated 2015).
